Results from patent US11053218B2, “3-(1-oxoisoindolin-2-yl)piperidine-2,6-dione derivatives and uses thereof” (Novartis AG, priority 2017, dated 2021).
Where two headings read alike, the source gives them in different places.

Key:
Assay type in all cases: cell-based
IKZF2 = IKZF2 (Homo sapiens, UniProt Q96SW2+Q9UKS7); assay: Prolabel quantification of IKZF2 protein levels in 293GT cells
IKZF1 = IKZF1 (Homo sapiens, UniProt Q13422+Q96SW2); assay: Prolabel quantification of IKZF1 protein levels in 293GT cells; details: Prolabel assay, read-out: IKZF1 EC50
Chain of IKZF1 (Q13422 whole entry): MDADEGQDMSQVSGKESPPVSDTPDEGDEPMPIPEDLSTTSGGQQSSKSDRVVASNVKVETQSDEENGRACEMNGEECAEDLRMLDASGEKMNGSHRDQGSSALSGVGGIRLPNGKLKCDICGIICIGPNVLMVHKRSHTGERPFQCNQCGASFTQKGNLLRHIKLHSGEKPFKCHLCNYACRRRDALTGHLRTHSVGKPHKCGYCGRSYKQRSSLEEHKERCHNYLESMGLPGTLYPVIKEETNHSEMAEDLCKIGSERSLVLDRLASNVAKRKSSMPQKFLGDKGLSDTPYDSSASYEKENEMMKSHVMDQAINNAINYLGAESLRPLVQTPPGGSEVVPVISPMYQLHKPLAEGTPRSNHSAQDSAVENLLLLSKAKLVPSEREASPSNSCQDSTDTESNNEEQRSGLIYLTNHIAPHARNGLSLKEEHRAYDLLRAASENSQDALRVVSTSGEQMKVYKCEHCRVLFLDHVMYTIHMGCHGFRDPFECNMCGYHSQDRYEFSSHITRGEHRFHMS
Chain of IKZF1 (Q96SW2 whole entry): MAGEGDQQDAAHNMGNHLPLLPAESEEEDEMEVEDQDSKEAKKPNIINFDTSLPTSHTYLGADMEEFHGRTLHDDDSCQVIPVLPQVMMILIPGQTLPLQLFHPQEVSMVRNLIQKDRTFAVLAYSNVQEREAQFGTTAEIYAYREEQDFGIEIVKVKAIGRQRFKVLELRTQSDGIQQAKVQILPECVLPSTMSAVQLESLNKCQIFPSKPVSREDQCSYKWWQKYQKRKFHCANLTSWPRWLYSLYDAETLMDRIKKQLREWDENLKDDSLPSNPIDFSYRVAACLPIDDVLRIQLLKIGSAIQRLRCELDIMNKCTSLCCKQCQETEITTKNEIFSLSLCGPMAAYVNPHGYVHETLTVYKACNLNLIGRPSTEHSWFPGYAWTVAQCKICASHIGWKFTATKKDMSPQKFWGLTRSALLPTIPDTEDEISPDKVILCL
Chain of IKZF1 (Q16531 whole entry partner): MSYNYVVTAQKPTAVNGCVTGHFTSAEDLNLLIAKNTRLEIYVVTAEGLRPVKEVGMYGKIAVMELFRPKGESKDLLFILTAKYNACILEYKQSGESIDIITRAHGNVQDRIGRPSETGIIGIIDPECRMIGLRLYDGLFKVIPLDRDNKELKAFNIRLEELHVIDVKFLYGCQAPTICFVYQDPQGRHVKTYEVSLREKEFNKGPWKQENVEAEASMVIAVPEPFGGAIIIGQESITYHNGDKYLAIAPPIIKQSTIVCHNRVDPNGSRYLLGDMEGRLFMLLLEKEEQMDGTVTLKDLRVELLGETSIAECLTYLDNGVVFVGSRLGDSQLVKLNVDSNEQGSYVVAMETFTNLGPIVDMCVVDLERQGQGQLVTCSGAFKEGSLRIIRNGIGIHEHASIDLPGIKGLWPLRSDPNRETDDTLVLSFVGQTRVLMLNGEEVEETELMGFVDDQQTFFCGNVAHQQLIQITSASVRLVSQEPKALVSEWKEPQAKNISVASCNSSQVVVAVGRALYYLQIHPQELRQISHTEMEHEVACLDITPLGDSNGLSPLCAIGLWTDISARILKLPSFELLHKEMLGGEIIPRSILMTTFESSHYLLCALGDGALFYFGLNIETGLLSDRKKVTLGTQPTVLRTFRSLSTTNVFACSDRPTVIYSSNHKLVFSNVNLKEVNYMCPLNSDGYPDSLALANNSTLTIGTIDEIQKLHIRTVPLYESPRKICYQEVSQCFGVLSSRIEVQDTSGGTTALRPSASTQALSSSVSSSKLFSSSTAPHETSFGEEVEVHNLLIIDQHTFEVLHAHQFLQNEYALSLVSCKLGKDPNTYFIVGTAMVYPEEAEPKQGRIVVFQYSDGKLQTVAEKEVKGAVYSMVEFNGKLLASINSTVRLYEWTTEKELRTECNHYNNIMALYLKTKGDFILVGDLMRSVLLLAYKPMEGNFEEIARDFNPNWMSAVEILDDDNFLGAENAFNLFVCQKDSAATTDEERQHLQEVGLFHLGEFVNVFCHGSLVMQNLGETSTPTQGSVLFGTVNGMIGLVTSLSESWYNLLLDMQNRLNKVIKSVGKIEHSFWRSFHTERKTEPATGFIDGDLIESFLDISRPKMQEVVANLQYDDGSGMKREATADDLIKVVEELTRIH

GSPT1 = GSPT1 (Homo sapiens, UniProt P15170+Q96SW2); assay: Prolabel quantification of GSPT1 protein levels in 293GT cells; details: Prolabel assay, read-out: GSPT1 EC50
Chain of GSPT1 (P15170 whole entry, the tested form may be a part): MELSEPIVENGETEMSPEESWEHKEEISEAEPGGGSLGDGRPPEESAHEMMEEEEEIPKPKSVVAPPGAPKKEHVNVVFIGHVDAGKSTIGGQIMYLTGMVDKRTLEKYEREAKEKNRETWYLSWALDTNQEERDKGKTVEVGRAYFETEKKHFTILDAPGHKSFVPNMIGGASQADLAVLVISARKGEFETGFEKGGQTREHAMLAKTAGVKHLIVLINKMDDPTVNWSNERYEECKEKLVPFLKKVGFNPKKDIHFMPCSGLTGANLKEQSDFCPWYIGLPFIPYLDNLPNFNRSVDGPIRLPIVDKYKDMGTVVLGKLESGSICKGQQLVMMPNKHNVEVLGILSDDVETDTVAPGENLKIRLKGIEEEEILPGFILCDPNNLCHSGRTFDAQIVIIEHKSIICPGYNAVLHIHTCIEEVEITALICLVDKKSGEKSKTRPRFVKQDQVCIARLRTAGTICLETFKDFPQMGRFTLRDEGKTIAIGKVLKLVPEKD
Chain of GSPT1 (Q96SW2 whole entry, the tested form may be a part): as the sequence (Q96SW2 whole entry) above
Chain of GSPT1 (Q16531 whole entry partner, the tested form may be a part): as the sequence (Q16531 whole entry partner) above
Protocol: The Prolabel system from DiscoverX was used to develop high-throughput and quantitative assays to measure changes in IKZF1, IKZF2 and GSPT1 protein levels in response to compounds. The prolabel tag was derived from the alpha fragment of beta galactosidase and has the following protein sequence: mssnslavvlqrrdwenpgvtqlnrlaahppfaswrnseeartdrpsqqlrslnge. The complementary fragment of beta-galactosidase (from DiscoverX), is added to the prolabel tag to form an active beta galactosidase enzyme whose activity can be precisely measured. In this way, the levels of a fusion protein with the prolabel tag can be quantified in cell lysates.
Lentiviral vectors, based on the Invitrogen pLenti6.2/V5 DEST backbone, were constructed that placed the prolabel tag upstream of IKZF1, IKZF2 or GSPT1 and expressed the fusion protein from a CMV promoter.
To ensure moderate and consistent expression of the prolabel fusion proteins across all cells in the population, stable cell lines were constructed from cells expressing a single copy of the construct. Lentivirus packaged with the constructs was made using the Virapower kit from Invitrogen.
The levels of prolabel tagged fusion proteins in compound treated cell lines were measured as follows:
Day 1, Cells were diluted to 1.0×10^6 cells/ml in normal growth medium. 17.5 μL of cells were plated in each well of a solid white 384 well plate. Plates were incubated overnight in a 37° C. tissue culture incubator.
Day 2, Serial dilutions of compounds were made in 384 well plates from 10 mM stocks. 15 μL of DMSO was added to each well of a 384 well plate. In the first column 15 μL of stock compound was added. The solution was mixed and 15 μL was transferred to the next column. This was repeated until 20 two-fold dilutions were prepared. 2.5 μL of diluted compounds were transferred into 60 μL of cell culture medium in another 384 well plate, and mixed well. 2.5 μL of this mixture was added to the plated cells. The final DMSO concentration was 0.5% and the highest concentration of compound was 50 μM. Plates were incubated overnight (e.g., about 14 h, 18 h, or 24 h) in a 37° C. tissue culture incubator.
Day 3, Plates were removed from the incubator and allowed to equilibrate at rt for 30 minutes. Prolabel substrate (DiscoverX PathHunter Prolabel Detection Kit, User manual: 93-0180) was added as described by the manufacturers protocols. Plates were incubated at rt for three hours and luminescence was read using an Envision reader (Perkin Elmer) Data was analyzed and visualized using the Spotfire software package.

[1] = 24 h, 10 μM, 24 h, 293GT cells; read-out: IKZF2 % protein reduction at 10 μM, 24 h
[2] = Prolabel assay, 293GT cells; read-out: IKZF2 EC50
[3] = 10 μM, 24 h, 293GT cells; read-out: IKZF2 % protein reduction at 10 μM, 24 h

Chain of IKZF2 (Q9UKS7 whole entry): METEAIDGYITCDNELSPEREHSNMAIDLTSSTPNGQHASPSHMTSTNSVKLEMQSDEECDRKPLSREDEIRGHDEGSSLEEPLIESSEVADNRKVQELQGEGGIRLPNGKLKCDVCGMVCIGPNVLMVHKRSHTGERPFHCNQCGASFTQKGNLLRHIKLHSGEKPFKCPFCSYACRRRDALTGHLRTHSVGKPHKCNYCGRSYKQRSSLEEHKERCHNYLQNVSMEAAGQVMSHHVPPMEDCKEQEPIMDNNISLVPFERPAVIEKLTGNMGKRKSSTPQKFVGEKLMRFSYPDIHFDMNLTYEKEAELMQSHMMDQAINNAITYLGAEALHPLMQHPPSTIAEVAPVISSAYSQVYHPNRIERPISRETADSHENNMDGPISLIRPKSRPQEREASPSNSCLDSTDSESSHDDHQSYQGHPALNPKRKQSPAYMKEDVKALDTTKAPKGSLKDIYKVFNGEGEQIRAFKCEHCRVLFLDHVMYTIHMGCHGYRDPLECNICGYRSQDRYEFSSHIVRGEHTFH
Chain of IKZF2 (Q96SW2 whole entry): as the sequence (Q96SW2 whole entry) above
Chain of IKZF2 (Q16531 whole entry partner): as the sequence (Q16531 whole entry partner) above

SMILES	inhibition at 10 µM (IKZF2; [1]) [%]	DC50 (IKZF2; [2]) [µM]	DC50 (IKZF1) [µM]	DC50 (GSPT1) [µM]	inhibition at 10 µM (IKZF2; [3]) [%]
Cc1cc(C)cc(CN2CCC(c3ccc4c(c3)CN(C3CCC(=O)NC3=O)C4=O)CC2)c1 (stereo not drawn) [Compound I-159, 3-(5-(1-(3,5-dimethylbenzyl)piperidin-4-yl)-1-oxoisoindolin-2-yl)piperidine-2,6-dione]	55	0.019	> 50	> 50	–
Cc1ccccc1CN1CCC(c2ccc3c(c2)CN(C2CCC(=O)NC2=O)C3=O)CC1 (stereo not drawn) [Compound I-157, 3-(5-(1-(2-methylbenzyl)piperidin-4-yl)-1-oxoisoindolin-2-yl)piperidine-2,6-dione]	55	0.056	> 50	> 50	–
O=C1CCC(N2Cc3cc(C4CCN(CC5CCCc6ccccc65)CC4)ccc3C2=O)C(=O)N1 (stereo not drawn) [Compound I-168, 3-(1-oxo-5-(1-((1,2,3,4-tetrahydronaphthalen-1-yl)methyl)piperidin-4-yl)isoindolin-2-yl)piperidine-2,6-dione]	55	0.014	> 50	> 50	–
O=C1CCC(N2Cc3cc(C4CCN(Cc5ccc(F)cc5)CC4)ccc3C2=O)C(=O)N1 (stereo not drawn) [Compound I-112, 3-(5-(1-(4-fluorobenzyl)piperidin-4-yl)-1-oxoisoindolin-2-yl)piperidine-2,6-dione]	63	0.007	> 50	> 50	–
COC(=O)CN1CCC(c2ccc3c(c2)CN(C2CCC(=O)NC2=O)C3=O)CC1 (stereo not drawn) [Compound I-169, methyl 2-(4-(2-(2,6-dioxopiperidin-3-yl)-1-oxoisoindolin-5-yl)piperidin-1-yl)acetate]	–	–	> 50	> 50	20
O=C1CCC(N2Cc3cc(C4CCN(Cc5ccc(Cl)cc5)CC4)ccc3C2=O)C(=O)N1 (stereo not drawn) [Compound I-97, 3-(5-(1-(4-chlorobenzyl)piperidin-4-yl)-1-oxoisoindolin-2-yl)piperidine-2,6-dione]	55	0.027	> 50	> 50	–
N#Cc1ccc(CN2CCC(c3ccc4c(c3)CN(C3CCC(=O)NC3=O)C4=O)CC2)cc1 (stereo not drawn) [Compound I-31, 3-(5-(1-(4-nitrilebenzyl)piperidin-4-yl)-1-oxoisoindolin-2-yl)piperidine-2,6-dione]	–	0.004	> 50	> 50	60
O=C1CCC(N2Cc3cc(C4CCCNCC4)ccc3C2=O)C(=O)N1 (single isomer, unassigned) [Compound I-167, 3-(5-(azepan-4-yl)-1-oxoisoindolin-2-yl)piperidine-2,6-dione]	25	–	> 50	> 50	–

The next lines start with results.

inhibition at 10 µM (IKZF2; [1]) [%]	DC50 (IKZF2; [2]) [µM]	DC50 (IKZF1) [µM]	DC50 (GSPT1) [µM]	SMILES	inhibition at 10 µM (IKZF2; [3]) [%]
75	0.016	> 30	> 30	O=C1CCC(N2Cc3cc(C4CCN(Cc5cnc(N6CCCC6)nc5)CC4)ccc3C2=O)C(=O)N1 (stereo not drawn) [Compound I-142, 3-(1-oxo-5-(1-((2-(pyrrolidin-1-yl)pyrimidin-5-yl)methyl)piperidin-4-yl)isoindolin-2-yl)piperidine-2,6-dione]	–
70	0.045	> 30	> 30	O=C1CCC(N2Cc3cc(C4CCN(Cc5nc6ccsc6c(=O)[nH]5)CC4)ccc3C2=O)C(=O)N1 (stereo not drawn) [Compound I-213, 3-(1-oxo-5-(1-((4-oxo-3,4-dihydrothieno[3,2-d]pyrimidin-2-yl)methyl)piperidin-4-yl)isoindolin-2-yl)piperidine-2,6-dione]	–
80	0.009	> 30	> 30	O=C1CCC(N2Cc3cc(C4CCN(Cc5ccc6cn[nH]c6c5)CC4)ccc3C2=O)C(=O)N1 (stereo not drawn) [Compound I-137, 3-(5-(1-((1H-indazol-6-yl)methyl)piperidin-4-yl)-1-oxoisoindolin-2-yl)piperidine-2,6-dione]	–
75	0.012	> 30	> 30	O=C1CCC(N2Cc3cc(C4CCN(Cc5cccn6nccc56)CC4)ccc3C2=O)C(=O)N1 (stereo not drawn) [Compound I-128, 3-(1-oxo-5-(1-(pyrazolo[1,5-a]pyridin-4-ylmethyl)piperidin-4-yl)isoindolin-2-yl)piperidine-2,6-dione]	–
80	0.007	> 30	> 30	O=C1CCC(N2Cc3cc(C4CCN(Cc5ccc(OC(F)F)cc5)CC4)ccc3C2=O)C(=O)N1 (stereo not drawn) [Compound I-77, 3-(5-(1-(4-(difluoromethoxy)benzyl)piperidin-4-yl)-1-oxoisoindolin-2-yl)piperidine-2,6-dione]	–
60	0.021	> 30	> 30	Cc1onc(-c2ccccc2)c1CN1CCC(c2ccc3c(c2)CN(C2CCC(=O)NC2=O)C3=O)CC1 (stereo not drawn) [Compound I-251, 3-(5-(1-((5-methyl-3-phenylisoxazol-4-yl)methyl)piperidin-4-yl)-1-oxoisoindolin-2-yl)piperidine-2,6-dione]	–
65	0.023	> 30	> 30	CC(C)Oc1cccc(CN2CCC(c3ccc4c(c3)CN(C3CCC(=O)NC3=O)C4=O)CC2)c1 (stereo not drawn) [Compound I-108, 3-(5-(1-(3-isopropoxybenzyl)piperidin-4-yl)-1-oxoisoindolin-2-yl)piperidine-2,6-dione]	–
80	0.016	> 30	> 30	Cc1ccc2c(CN3CCC(c4ccc5c(c4)CN(C4CCC(=O)NC4=O)C5=O)CC3)c[nH]c2c1 (stereo not drawn) [Compound I-149, 3-(5-(1-((6-methyl-1H-indol-3-yl)methyl)piperidin-4-yl)-1-oxoisoindolin-2-yl)piperidine-2,6-dione]	–
75	0.074	> 30	> 30	O=C1CCC(N2Cc3cc(C4CCN(Cc5ccc(C6CCCC6)cc5)CC4)ccc3C2=O)C(=O)N1 (stereo not drawn) [Compound I-110, 3-(5-(1-(4-cyclopentylbenzyl)piperidin-4-yl)-1-oxoisoindolin-2-yl)piperidine-2,6-dione]	–
65	0.12	> 30	> 30	Cc1ccc2sc(-c3ccc(CN4CCC(c5ccc6c(c5)CN(C5CCC(=O)NC5=O)C6=O)CC4)cc3)nc2c1 (stereo not drawn) [Compound I-225, 3-(5-(1-(4-(5-methylbenzo[d]thiazo1-2-yl)benzyl)piperidin-4-yl)-1-oxoisoindolin-2-yl)piperidine-2,6-dione]	–
70	0.081	> 30	> 30	NC(=O)c1cccc(CN2CCC(c3ccc4c(c3)CN(C3CCC(=O)NC3=O)C4=O)CC2)c1 (stereo not drawn) [Compound I-139, 3-((4-(2-(2,6-dioxopiperidin-3-yl)-1-oxoisoindolin-5-yl)piperidin-1-yl)methyl)benzamide]	–
70	0.05	> 30	> 30	CN1CCN(Cc2cc(CN3CCC(c4ccc5c(c4)CN(C4CCC(=O)NC4=O)C5=O)CC3)ccc2O)CC1 (stereo not drawn) [Compound I-205, 3-(5-(1-(4-hydroxy-3-((4-methylpiperazin-1-yl)methyl)benzyl)piperidin-4-yl)-1-oxoisoindolin-2-yl)piperidine-2,6-dione]	–
